We go through 24 compounds from ChEMBL document CHEMBL5096192, “Recent advancements in anti-leishmanial research: Synthetic strategies and structural activity relationships” (Eur J Med Chem, 2021).

Series [1] concerns Leishmania donovani. Briefly: Antileishmanial activity against promastigote form of Leishmania donovani MHOM/IN/83/AG83 assessed as inhibition of promastigote growth incubated for 48 hrs by MTT reduction assay. In kind it is functional, organism-based. Conditions: MHOM/IN/83/AG83, 48 h. A general note: Tetrazolium dyes change colour on reduction, which living cells bring about.

Series [2] has as its system Leishmania donovani. Briefly: Antileishmanial activity against Leishmania donovani MHOM/IN/83/AG83 intracellular amastigotes infected in mouse RAW264.7 cells assessed as parasite growth inhibition incubated for 48 hrs by Giemsa staining based microscopic analysis. Format: functional, organism-based. To be noted: MHOM/IN/83/AG83, RAW264.7, 48 h.
In series [3] the test system is Leishmania mexicana. Briefly: Inhibition of recombinant Leishmania mexicana CPB2.8 delta CTE at 20 uM.
Series [4] has as its system Leishmania amazonensis. Briefly: Antileishmanial activity against Leishmania amazonensis IFLA/Br/67/PH8 intracellular amastigotes infected in BALB/c mouse peritoneal macrophages assessed as reduction in intracellular amastigotes incubated for 72 hrs by fluorometric analysis. To be noted: IFLA/Br/67/PH8, 72 h. In kind it is functional, organism-based.
Series [5] has as its system Leishmania panamensis. Briefly: Antileishmanial activity against Leishmania panamensis MHOM/CO/87/UA140pIR-GFP intracellular amastigotes infected in human U-937 cells assessed as parasite growth inhibition measured after 72 hrs by flow cytometry analysis. In kind it is functional, organism-based. Conditions: U-937, 72 h. For orientation: In flow cytometry, cells or beads pass a laser one at a time.

The test system of series [6] is Leishmania infantum. Briefly: Antileishmanial activity against Leishmania infantum MHOM/MA/67/ITMAP263 intracellular amastigotes infected in primary peritoneal mouse macrophages assessed as inhibition of parasite growth by cell based assay. To be noted: MHOM/MA/67/ITMAP263, Peritoneal macrophage. In kind it is functional, organism-based.
Series [7] deals with Leishmania amazonensis. Description: Antileishmanial activity against promastigote form of Leishmania amazonensis (MHOM/BR/71973/M2269) assessed as parasite growth inhibition by MTT assay. Format: functional, organism-based.
In series [8] the test system is Leishmania amazonensis. Briefly: Antileishmanial activity against amastigote form of Leishmania amazonensis (MHOM/BR/71973/M2269) assessed as parasite growth inhibition by MTT assay. Format: functional, organism-based.
For series [9], the system named is Leishmania mexicana. Briefly: Antileishmanial activity against promastigote form of Leishmania mexicana assessed as inhibition of parasite growth measured for 10 days by Neubauer counting chamber based analysis. In kind it is functional, organism-based. To be noted: 240 h.
Series [10] deals with Leishmania donovani. Description: Antileishmanial activity against promastigote form of wild-type Leishmania donovani MHOM/80/IN/Dd8 assessed as inhibition of parasite growth incubated for 48 hrs by MTT assay. In kind it is functional, organism-based. To be noted: MHOM/80/IN/Dd8, 48 h.
Series [11] concerns Trypanosoma cruzi. Description: Antitrypanosomal activity against Trypanosoma cruzi Tulahuen intracellular amastigotes transfected with beta-galactosidase infected in human U-937 cells assessed as viability of intracellular amastigotes measured after 72 hrs by spectrophotometry. Format: functional, organism-based. Conditions: U-937, 72 h.
For series [12], the system named is Leishmania infantum. Description: Antileishmanial activity against promastigote form of Leishmania infantum BH 46 assessed as parasite growth inhibition measured after 48 hrs by Celltiter-Glo assay. In kind it is functional, organism-based. Conditions: BH 46, 48 h.
Series [13] in a line: Cytotoxicity against BALB/c mouse peritoneal macrophages assessed as reduction in cell viability measured after 48 hrs by luminescence based CellTiter-Glo assay. Format: toxicity, Peritoneal macrophage. In general terms: Cellular ATP, detected with luciferase, serves as a proxy for viable cell number.
Series [14] relates to Leishmania mexicana. Description: Antileishmanial activity against mammalian stage Leishmania mexicana MNYC/BZ/62/M379 axenic amastigotes assessed as inhibition of […] incubated for 24 hrs by alamar blue assay. In kind it is functional. To be noted: read-out: ED50 (the source's name).
In series [15] the test system is Leishmania amazonensis. Briefly: Antileishmanial activity against promastigote form of Leishmania amazonensis IFLA/BR/1967/PH8 assessed as parasite growth inhibition incubated for 72 hrs by MTT assay. Format: functional, organism-based. To be noted: IFLA/BR/1967/PH8, 72 h.
Series [16] has as its system Leishmania amazonensis. Description: Antileishmanial activity against promastigote form of Leishmania amazonensis MHOM/BR/77/LTB0016 incubated for 24 hrs by MTT assay. In kind it is functional, organism-based. To be noted: MHOM/BR/77/LTB0016, 24 h.
Series [17] in a line: Selectivity index, ratio of CC50 for cytotoxicity against human THP1 cells to IC50 for antileishmanial activity against promastigote form of Leishmania donovani. Format: toxicity, cell-based. Conditions: read-out: Ratio CC50/IC50.
Series [18] has as its system Leishmania donovani. Briefly: Antileishmanial activity against promastigote form of Leishmania donovani assessed as inhibition of promastigote growth incubated for 48 hrs by Alamar blue assay. In kind it is functional, organism-based.
Series [19] has as its system Leishmania major. Briefly: Antileishmanial activity against Leishmania major JISH118 promastigote infected in human THP-1 cells assessed as parasite growth inhibition measured after 48 hrs by Giemsa staining based analysis. In kind it is functional, organism-based. To be noted: JISH118, THP-1, 48 h.
In series [20] the test system is Leishmania braziliensis. Description: Antileishmanial activity against promastigote form of Leishmania braziliensis MHOM/CO/88/301-EGFP infected in human U-937 cells assessed as parasite growth inhibition measured after 72 hrs by flow cytometer analysis. In kind it is functional, organism-based. Conditions: U-937, 72 h.
The test system of series [21] is Leishmania panamensis. Briefly: Antileishmanial activity against promastigote form of Leishmania panamensis MHOM/CO/87/UA140-EGFP infected in human U-937 cells assessed as parasite growth inhibition measured after 72 hrs by flow cytometer analysis. Format: functional, organism-based. Conditions: U-937, 72 h.
The test system of series [22] is Mycobacterium tuberculosis. Briefly: Antimycobacterial activity against Mycobacterium tuberculosis H37Rv ATCC 27294 assessed as inhibition of bacterial growth and measured at 7 to 14 day by broth microdilution assay. In kind it is functional. Conditions: time 7-14 day.
Series [23] deals with Leishmania major. Briefly: Antileishmanial activity against Leishmania major (MHOM/IR/-173) promastigotes assessed as inhibition of parasite growth incubated for 72 hrs by alamar blue staining based analysis. In kind it is functional, organism-based. To be noted: MHOM/IR/-173, 72 h.

Values after ≈ are worked out from the molar mass of the structure shown.

For the compound `Cc1ccc(-c2nn(-c3ccccc3)cc2/C=C/c2nnc(-c3sc4ccccc4c3Cl)o2)cc1`, the IC50 in [1] was 19 µg/mL (≈ 38.4 µM); in series [2], 73.1 µg/mL (≈ 148 µM).
Turning to `COc1ccc(-c2nnc(/C=C/c3cn(-c4ccccc4)nc3-c3ccccc3)o2)cc1OC`, the values for the concentration for half-maximal inhibition (IC50) in [1] and in [2] were 40.1 µg/mL (≈ 89 µM) and 66.8 µg/mL (≈ 148 µM), respectively.
Turning to `COC(=O)c1ccc(NC(=O)CSc2nc3ccccc3n2S(=O)(=O)c2cc(C)cc(C)c2)cc1`, the inhibition in [3] stood at 97%.
Regarding `CCCCCCCCCCn1cc(COCC2CO2)[n+](C)n1` (configuration not stated), in series [4], the IC50 came to 7.61 µM.
On to `Cn1cc[n+](CCCOc2ccc(C(=O)/C=C/c3ccco3)cc2)c1`, for which, in [5], the EC50 was 4.65 µM.
Turning to `COC(=O)c1ccc(NC(=O)CSc2nc3ccc(Cl)cc3n2Cc2cc(C)cc(C)c2)c(Cl)c1`, the 50% inhibitory concentration (IC50) in series [6] was 6.82 µM.
In the case of `O=C(/C=C/c1ccco1)c1ccc(OCCCCCOc2cccc3cccnc23)cc1`, the EC50 in [5] worked out at 13.8 µM.
With `CCCc1cc(OC)c2oc(=O)c(C(=O)c3ccc([N+](=O)[O-])cc3)cc2c1`, the IC50 is 3.53 µM in [7] and 12 µM in [8].
`Fc1ccc(Nc2cnc3ccccc3c2)cc1`: in series [9], the 50% inhibitory concentration (IC50) was determined as 41.9 µM.
Consider `O=[N+]([O-])c1ccc(COc2ccc(-c3nc4ccccc4[nH]3)cc2)cc1`, for which, in series [10], the IC50 is 68 µM.
For `CC(CCCCCCC[n+]1ccn(C)c1)Oc1ccc(C(=O)/C=C/c2ccco2)cc1` (configuration not stated), the EC50 in [11] was 0.66 µM; in [5], 0.78 µM.
Regarding `COc1ccc(-c2csc(N/N=C/c3ccccn3)n2)cc1`, the half-inhibitory concentration (IC50) in [12] worked out at 2.78 µM. The CC50 at 48 h in series [13] is 1.35 µM.
`CC1(C)CC[C@]2(NC(=O)N3CCC[C@H]3C(=O)O)CC[C@]3(C)C(=CC[C@@H]4[C@@]5(C)CC[C@@H]6OC(C)(C)OC[C@@]6(C)[C@@H]5CC[C@]43C)[C@@H]2C1`: in series [14], the EC50 worked out at 4 µM.
With `Cn1cc[n+](CCCCCCCCOc2ccc(C(=O)/C=C/c3ccco3)cc2)c1`, the EC50 in series [5] turned out to be 8.39 µM.
On to `O=C(CC[Se]c1ccnc2cc(Cl)ccc12)Nc1ccc([N+](=O)[O-])cc1`, for which, in series [15], the IC50 stood at 10.8 µg/mL (≈ 24.9 µM).
On to `NC(=S)N/N=C(\C=C\c1ccc(Cl)cc1)c1ccccc1`, for which the IC50 in series [16] was 5.22 µM.
Turning to `CC(C)CCN1C(=O)C=CC1=O`, the selectivity ratio in [17] was > 781. The IC50 in [18] is < 0.0128 µg/mL.
`Clc1cccc(Nc2nnc(-c3ccc(C(c4c[nH]c5ccccc45)c4c[nH]c5ccccc45)cc3)s2)c1`: the half-maximal inhibitory concentration (IC50) in series [19] came to 0.7 µM.
With `O=C(C[Se]CC(=O)Nc1ccc([N+](=O)[O-])cc1)Nc1ccc([N+](=O)[O-])cc1`, the IC50 in series [15] turned out to be 5.67 µg/mL (≈ 13 µM).
`O=C(N/N=C1\CCOc2ccccc21)c1ccccc1`: the EC50 came to 12.1 µg/mL (≈ 45.4 µM) in series [20] and 20.1 µg/mL (≈ 75.5 µM) in series [21].
Take `OCc1cn(-c2cc(O)ccc2O)nn1`: the MIC90 in series [22] was found to be 16 µM (≈ 3.32 µg/mL). For the same compound, the IC50 in [23] came to 23 µM.
`Fc1cccc(Nc2cnc3ccccc3c2)c1`: the IC50 in [9] was 41.9 µM.
Consider `c1cncc(Nc2nnc(-c3ccc(C(c4c[nH]c5ccccc45)c4c[nH]c5ccccc45)cc3)s2)c1`, for which the half-maximal inhibitory concentration (IC50) in [19] turned out to be 0.7 µM.
As to `COC(=O)[C@]12CCC(C)(C)C[C@H]1C1=CC[C@@H]3[C@@]4(C)CC[C@@H]5O[C@H](c6ccccc6C(=O)O)OC[C@@]5(C)[C@@H]4CC[C@@]3(C)[C@]1(C)CC2`, the EC50 in [14] was 5 µM.

A word on the IC50: it is the concentration needed to halve the response being measured. Usually inhibition stands for the change of the read-out against control, counted positive when it falls. As usually defined, the CC50 is the concentration giving 50% cytotoxicity. A word on the MIC90: it is the lowest concentration that inhibits either 90% of growth or 90% of the strains tested, depending on the study.
